Results as given in PMC9503535, “Inositol Derivatives with Anti-Inflammatory Activity from Leaves of Solanum capsicoides Allioni” (Molecules, 2022).
Where two headings read alike, the source gives them in different places.

Columns and labels:
[1] = Cytotoxicity on BV2 cells, CCK8 method; type: cell-based; details: mouse, BV2 microglial cells, CCK8, 24 h treatment, 5-200 μM, read-out: Cytotoxic activities IC50
Description: The cytotoxicity assay was performed with a modified CCK8 method. First, BV2 microglial cells were cultured with 96-well microplates (10^4 cells/well in […] medium) for 24 h. Then, the cells were treated with different concentrations (5, 10, 30, 50, 100, 200 μM) of compounds. After the cells were incubated for 24 h, added 10 μL CCK8 solution to each well and incubated for 2 h in a 5% CO2 humidifier at 37 ℃. The absorbance was recorded at 450 nm with a microplate reader (BioTek Company, Winooski, VT, USA), repeating three times, and its IC50 value was calculated.

[2] = test system: NO production in LPS-stimulated BV2 cells; test: Inhibition of NO production in LPS-stimulated BV2 cells (Griess reaction); type: cell-based; details: read-out: Inhibitory effects on NO in LPS-induced BV-2, IC50
Description: BV2 microglial cells were cultured in DMEM containing 10% fetal bovine serum, 100 IU/mL penicillin, and 100 μg/mL streptomycin at 37 ℃ with 5% CO2. Then, the cells were placed in 96-well microplates and treated with different compounds at 1–8 concentrations (5, 10, 30, 50, 100, 200 μM) for 1 h. Next, the cells were treated with 1 μg/mL LPS for 24 h to detect the NO (nitric oxide) levels in culture supernatants. After the Griess reaction (incubated at 37 ℃ with 5% CO2 for 0.5 h), the absorbance of cells was measured with a microplate reader (BioTek Company, Winooski, VT, USA) at […], repeated three times, and its IC50 value was calculated.

[3] = Mus musculus, BV-2, compound 1 h then 1 μg/mL LPS 24 h

SMILES	IC50 at 24 h [1]	IC50 [2, 3]	IC50 ([2]; compound 1 h then 1 μg/mL LPS 24 h)
CCC(C)C(=O)O[C@@H]1[C@H](OC(=O)C(C)C)[C@@H](OC(=O)C(C)C)[C@H](O)[C@@H](O)[C@@H]1OC(C)=O (relative stereo) [Compound 2, myoinositol-1,2-isobutyryloxy-3-(2-methylbutyrate)-4-acetate]	> 100 µM	31.7 ± 2.71 µM	
CCC(C)C(=O)O[C@@H]1[C@H](O)[C@@H](O)[C@H](O)[C@@H](OC(=O)C(C)CC)[C@@H]1OC(C)=O (relative stereo) [Compound 7, myoinositol-1,3-(2-methylbutyrate)-2-acetate]	> 100 µM	14.5 ± 1.22 µM	
CCC(C)C(=O)O[C@H]1[C@@H](OC(=O)C(C)CC)[C@H](OC(C)=O)[C@@H](O)[C@H](OC(=O)C(C)CC)[C@H]1OC(C)=O (relative stereo) [Compound 3, myoinositol-1,4-acetate-2,3,5-(2-methylbutyrate)]	> 100 µM	> 100 µM	
CCC(C)C(=O)O[C@H]1[C@@H](OC(=O)C(C)CC)[C@H](OC(=O)C(C)CC)[C@@H](O)[C@H](OC(=O)C(C)C)[C@H]1OC(C)=O (relative stereo) [Compound 4, myoinositol-1,2,3-(2-methylbutyrate)-4-acetate-5-isobutyryloxy]	> 100 µM	> 100 µM	
CCC(C)C(=O)O[C@@H]1[C@@H](OC(=O)C(C)CC)[C@H](O)[C@@H](O)[C@H](O)[C@@H]1OC(=O)C(C)CC (relative stereo) [Compound 8, myoinositol-2,3,6-(2-methylbutyrate)]	> 100 µM	31 ± 0.92 µM	
CCC(C)C(=O)O[C@@H]1[C@H](OC(=O)C(C)CC)[C@@H](O)[C@H](O)[C@@H](O)[C@@H]1OC(C)=O (relative stereo) [Compound 6, myoinositol-2,3-(2-methylbutyrate)-4-acetate]	> 100 µM	23.3 ± 0.74 µM	
CNC(=N)NCCC[C@H](N)C(=O)O [NMMA, reference compound]			1.67 ± 0.24 µM
CCC(C)C(=O)O[C@@H]1[C@H](OC(C)=O)[C@@H](OC(=O)C(C)CC)[C@H](O)[C@@H](O)[C@@H]1OC(=O)C(C)C (relative stereo) [Compound 1, myoinositol-1,3-(2-methylbutyrate)-2-acetate-4-isobutyryloxy]	> 100 µM	24.3 ± 1.82 µM	
CCC(C)C(=O)O[C@@H]1[C@@H](O)[C@H](O)[C@H](OC(=O)C(C)CC)[C@H](OC(=O)C(C)CC)[C@H]1O (relative stereo) [Compound 5, myoinositol-2,3,6-(2-methylbutyrate)]	> 100 µM	11.2 ± 0.14 µM	
